One assay deals with Treponema hyodysenteriae. In words: in vitro antibacterial activity (MIC, agar dilution method), Test Examples 1-3. The class given is cell-based. The settings on record: 37° C., 2 days, anaerobic; for MIC: Brachyspira hyodysenteriae, 48 h. On the procedure:
Several agents were tested for in vitro antibacterial activity against Treponema hyodysenteriae, the pathogenic bacteria causing swine dysentery, by the method of testing drug sensitivity of Treponema hyodysenteriae (Kashiwazaki et al. Abstracts of Papers presented at the 82nd Meeting of the Japanese Society of Veterinary Science, page 101, 1976).
(1) Strains: These strains belong to Treponema hyodysenteriae isolated
from the bloody mucous faeces of dysenteric pigs in Japan.
(2) Antimicrobial activity assay: Agar dilution method
(3) Inoculum size: A loopful of bacterial suspension (10^6 CFU/ml)
(4) Cultural conditions: GasPak anaerobic system (BBL), 37° C., 2
Typical agents among compound (I) were tested for in vitro antibacterial activity by the same method as in Test Example 1.
The experimental conditions are the same as in Test Example 1 (Table 1).
Agents of compound (I) were tested for in vitro antibacterial activity by the same method as in Test Example 1.

Assay [1] relates to Treponema hyodysenteriae 78/A strain. The assay is described as follows: efficacy against swine dysentery under experimental infection conditions in pigs (drug in feed), Test Examples 5-7. The class given is in vivo, Landrace pigs. The settings on record: 50 ppm in feed. As for the experimental part:
Lankacidin C was tested for efficacy against swine dysentery under experimental infection conditions. Thus, twelve 6-week-old Landrace pigs (4 per group) were used. The test drug was admixed to a concentration of 100 ppm with the domestically formulated starter feed for young pigs without antibiotics. The animals were provided with the ration ad libitum. Infection of the pigs was effected by direct intragastrical administration to the SPF pigs of an inoculum prepared by preliminary anaerobic cultivation of the Treponema hyodysenteriae 78/A strain on a 5% horse blood added agar plate, mashing together with the culture medium and admixing with 5% mucin added phosphate buffer. Colonic contents and mucosa were collected from pigs which developed typical signs of swine dysentery, and diluted two-fold with 5% mucin added phosphate buffer. The dilution was used as the final inoculum, and 100 ml of the dilution was directly injected into the stomach of test pigs at the age of 7 weeks (fasted for 24 hours before infection). The pigs were fed for 21 days following infection.
The data are each the mean value per head for the 21day period from
infection to autopsy. Different alphabetic letters on the same line
indicate that there is a significant difference between the data to which
they are attached (P <0.05).
Lankacidin C was tested at concentrations in feed of 100 ppm and lower by the same method as in Test Example 5, with carbadox, a commonly used anti-swine-dysentery agent, for comparison.
The anti-swine-dysentery effects of 10 ppm each of lankacidin A and lankacidin C 14-propionate were examined by the procedure of Test Example 6.

Where [2] appears, read: strain 78/A, read-out: Minimum Inhibitory Concentration.
[3] abbreviates: strain CD1 (CD-1), read-out: Minimum Inhibitory Concentration.
The mark [4] stands for this setting: strain DJ70P1, read-out: Minimum Inhibitory Concentration.
[5] abbreviates: strain MK-2, read-out: Minimum Inhibitory Concentration.

In brackets after ≈: the same amount, converted by molar mass. Several values for one entry are separate records, joined by “and”; a condition that tells them apart may be missing. Identical values can stand only once. Like-named read-outs stand apart in the source and are kept apart here.

For `CC(=O)C(=O)NC1C=C(C)C=CC(OC(=O)C(C)C)CC=C(C)C=CC(O)CC2OC(=O)C1(C)C(=O)C2C` (stereo not shown) [Lankacidin C 8-isobutyrate], the MIC in the assay on Treponema hyodysenteriae (setting [2]) turned out to be 6.25 mg/L (≈ 11.8 µM); in the assay on Treponema hyodysenteriae (setting [3]), 6.25 mg/L (≈ 11.8 µM); with Treponema hyodysenteriae (setting [4]), 3.13 mg/L (≈ 5.91 µM); in the assay on Treponema hyodysenteriae (setting [5]) it was 6.25 mg/L (≈ 11.8 µM).
In the case of `CO[C@H]1C[C@H](O[C@H]2[C@H](C)[C@@H](O[C@@H]3O[C@H](C)C[C@H](N(C)C)[C@H]3O)[C@@H](C)C[C@@]3(CO3)C(=O)[C@H](C)[C@@H](O)[C@@H](C)[C@@H](C)OC(=O)[C@@H]2C)O[C@@H](C)[C@@H]1O` [Oleandomycin, reference compound], the MIC with Treponema hyodysenteriae (setting [2]), in the assay on Treponema hyodysenteriae (setting [3]), with Treponema hyodysenteriae (setting [4]) and with Treponema hyodysenteriae (setting [5]) was > 100 mg/L each time.
`CCC(=O)OC1C=CC(C)=CC(NC(=O)C(C)=O)C2(C)C(=O)OC(CC(OC(C)=O)C=CC(C)=CC1)C(C)C2=O` (stereo not shown) [Lankacidin A 8-propionate, lankacidin A 8-propionate]: the MIC in the assay on Treponema hyodysenteriae (setting [2]), in the assay with Treponema hyodysenteriae (setting [3]), with Treponema hyodysenteriae (setting [4]) and in the assay on Treponema hyodysenteriae (setting [5]) was 6.25 mg/L (≈ 11.2 µM) in each case.
Consider `CCCCC(=O)OC1C=CC(C)=CCC(O)C=CC(C)=CC(NC(=O)C(C)=O)C2(C)C(=O)OC(C1)C(C)C2=O` (stereo not shown) [Lankacidin C 14-valerate], for which the MIC in the assay with Treponema hyodysenteriae (setting [2]) is 3.13 mg/L (≈ 5.76 µM); in the assay with Treponema hyodysenteriae (setting [3]) it was 6.25 mg/L (≈ 11.5 µM); in the assay with Treponema hyodysenteriae (setting [4]) it was 3.13 mg/L (≈ 5.76 µM); with Treponema hyodysenteriae (setting [5]), 6.25 mg/L (≈ 11.5 µM).
On to `CC[C@H]1OC(=O)[C@H](C)[C@@H](O[C@H]2C[C@@](C)(OC)[C@@H](O)[C@H](C)O2)[C@H](C)[C@@H](O[C@@H]2O[C@H](C)C[C@H](N(C)C)[C@H]2O)[C@](C)(O)C[C@@H](C)C(=O)[C@H](C)[C@@H](O)[C@]1(C)O` [Erythromycin, reference compound], for which the MIC in the assay on Treponema hyodysenteriae (read-out: Minimum Inhibitory Concentration, strain 78/A) is > 100 mg/L; with Treponema hyodysenteriae (read-out: Minimum Inhibitory Concentration, strain CD1 (CD-1)) it was > 100 mg/L; with Treponema hyodysenteriae (read-out: Minimum Inhibitory Concentration, strain DJ70P1), > 100 mg/L; in the assay on Treponema hyodysenteriae (read-out: Minimum Inhibitory Concentration, strain MK-2) it was > 100 mg/L.
`CCCC(=O)OC1C=CC(C)=CC(NC(=O)C(C)=O)C2(C)C(=O)OC(CC(O)C=CC(C)=CC1)C(C)C2=O` (stereo not shown) [Lankacidin C 8-butyrate]: the MIC in the assay with Treponema hyodysenteriae (setting [2]), with Treponema hyodysenteriae (setting [3]), in the assay with Treponema hyodysenteriae (setting [4]) and with Treponema hyodysenteriae (setting [5]) was 0.78 mg/L (≈ 1.47 µM) throughout.
Turning to `CCCC(=O)OC1C=CC(C)=CCC(O)C=CC(C)=CC(NC(=O)C(C)=O)C2(C)C(=O)OC(C1)C(C)C2=O` (stereo not shown) [Lankacidin C 14-butyrate], the MIC stood at 0.78 mg/L (≈ 1.47 µM) in the assay with Treponema hyodysenteriae (setting [2]), 1.56 mg/L (≈ 2.95 µM) in the assay with Treponema hyodysenteriae (setting [3]), 1.56 mg/L (≈ 2.95 µM) in the assay with Treponema hyodysenteriae (setting [4]) and 3.13 mg/L (≈ 5.91 µM) in the assay with Treponema hyodysenteriae (setting [5]).
Take `CCC(=O)OC1C=CC(C)=CC(NC(=O)C(C)=O)C2(C)C(=O)OC(CC(O)C=CC(C)=CC1)C(C)C2=O` (stereo not shown) [Lankacidin C 8-propionate, lankacidin C 8-propionate]: the MIC in the assay on Treponema hyodysenteriae (setting [2]), in the assay on Treponema hyodysenteriae (setting [3]), in the assay on Treponema hyodysenteriae (setting [4]) and in the assay with Treponema hyodysenteriae (setting [5]) was 1.56 mg/L (≈ 3.03 µM) each time.
As to `CC(=O)C(=O)NC1C=C(C)C=CC(OC(=O)c2ccccc2)CC=C(C)C=CC(O)CC2OC(=O)C1(C)C(=O)C2C` (stereo not shown) [Lankacidin C 8-benzoate, lankacidin C 8-benzoate], the MIC in the assay with Treponema hyodysenteriae (setting [2]), in the assay with Treponema hyodysenteriae (setting [3]), in the assay with Treponema hyodysenteriae (setting [4]) and in the assay with Treponema hyodysenteriae (setting [5]) was 0.1 mg/L (≈ 0.177 µM) in each case.
Take `COC(=O)N/N=C/c1c[n+]([O-])c2ccccc2[n+]1[O-]` [Carbadox, carbadox, reference compound]: in assay [1], the “Number of pigs from which the pathogen was detected, in colonic mucosa” value worked out at 0; the “Number of pigs from which the pathogen was detected, in feces” value came out at 0; the “Number of pigs showing colonic lesions” value is reported as 0. In addition, in assay [1] (21-day test period), the “Number of days on which mucous bloody stool was observed” value turned out to be 0 days and the “Number of pigs showing signs of infection/number of pigs used” value is 0/4. In assay [1] (21 day period, mean per head), the Body weight gain was 473 grams/day and 552 grams/day; the Feed conversion is 2.08 and 1.83; the Feed intake was 20.7 kg and 21.2 kg. Also, the “Body weight at the time of completion of test” value in assay [1] (mean per head) was 21.0 kg and 22.7 kg.
For the molecule `CCC(=O)OC1C=CC(C)=CC(NC(=O)C(C)=O)C2(C)C(=O)OC(CC(OC(=O)CC)C=CC(C)=CC1)C(C)C2=O` (stereo not shown) [Lankacidin C 8,14-dipropionate, lankacidin C 8,14-dipropionate], the MIC amounted to 0.78 mg/L (≈ 1.36 µM) in the assay on Treponema hyodysenteriae (setting [2]), 1.56 mg/L (≈ 2.73 µM) in the assay on Treponema hyodysenteriae (setting [3]), 0.78 mg/L (≈ 1.36 µM) in the assay with Treponema hyodysenteriae (setting [4]) and 0.78 mg/L (≈ 1.36 µM) with Treponema hyodysenteriae (setting [5]).
Take `CCC[C@@H]1C[C@@H](C(=O)N[C@@H]([C@H]2O[C@H](SC)[C@H](O)[C@@H](O)[C@H]2O)[C@@H](C)O)N(C)C1` [Lincomycin, reference compound]: the MIC in the assay with Treponema hyodysenteriae (setting [2]), in the assay with Treponema hyodysenteriae (setting [3]), in the assay with Treponema hyodysenteriae (setting [4]) and with Treponema hyodysenteriae (setting [5]) was 50 mg/L (≈ 123 µM) each time.
With `CCCC(=O)OC1C=CC(C)=CC(NC(=O)C(C)=O)C2(C)C(=O)OC(CC(OC(=O)CCC)C=CC(C)=CC1)C(C)C2=O` (stereo not shown) [Lankacidin C 8,14-dibutyrate], the MIC in the assay with Treponema hyodysenteriae (setting [2]) was found to be 1.56 mg/L (≈ 2.6 µM); in the assay with Treponema hyodysenteriae (setting [3]), 3.13 mg/L (≈ 5.22 µM); with Treponema hyodysenteriae (setting [4]), 3.13 mg/L (≈ 5.22 µM); in the assay on Treponema hyodysenteriae (setting [5]) it was 3.13 mg/L (≈ 5.22 µM).
`CC(=O)OC1C=CC(C)=CC(NC(=O)C(C)=O)C2(C)C(=O)OC(CC(OC(C)=O)C=CC(C)=CC1)C(C)C2=O` (stereo not shown) [Lankacidin C 8,14-diacetate, lankacidin C 8,14-diacetate]: the MIC with Treponema hyodysenteriae (setting [2]) was found to be 3.13 mg/L (≈ 5.76 µM); in the assay with Treponema hyodysenteriae (setting [3]), 3.13 mg/L (≈ 5.76 µM); in the assay on Treponema hyodysenteriae (setting [4]) it was 3.13 mg/L (≈ 5.76 µM); in the assay with Treponema hyodysenteriae (setting [5]) it was 1.56 mg/L (≈ 2.87 µM).
On to `CC(=O)C(=O)NC1C=C(C)C=CC(O)CC=C(C)C=CC(OC(=O)c2ccccc2)CC2OC(=O)C1(C)C(=O)C2C` (stereo not shown) [Lankacidin C 14-benzoate, lankacidin C 14-benzoate], for which the MIC with Treponema hyodysenteriae (setting [2]), in the assay with Treponema hyodysenteriae (setting [3]), in the assay on Treponema hyodysenteriae (setting [4]) and in the assay with Treponema hyodysenteriae (setting [5]) was 6.25 mg/L (≈ 11.1 µM) throughout.
For the molecule `CO[C@@H]1[C@@H](O[C@@H]2O[C@H](C)[C@@H](O[C@H]3C[C@@](C)(O)[C@@H](OC(=O)CC(C)C)[C@H](C)O3)[C@H](N(C)C)[C@H]2O)[C@@H](CC=O)C[C@@H](C)[C@@H](O)/C=C/C=C/C[C@@H](C)OC(=O)C[C@H]1O` [Leucomycin, reference compound], the MIC with Treponema hyodysenteriae (setting [2]), with Treponema hyodysenteriae (setting [3]), in the assay with Treponema hyodysenteriae (setting [4]) and in the assay on Treponema hyodysenteriae (setting [5]) was > 100 mg/L in each case.
On to `CCCCC(=O)OC1C=CC(C)=CC(NC(=O)C(C)=O)C2(C)C(=O)OC(CC(O)C=CC(C)=CC1)C(C)C2=O` (stereo not shown) [Lankacidin C 8-valerate], for which the MIC with Treponema hyodysenteriae (setting [2]) amounted to 1.56 mg/L (≈ 2.87 µM); in the assay with Treponema hyodysenteriae (setting [3]), 3.13 mg/L (≈ 5.76 µM); with Treponema hyodysenteriae (setting [4]), 1.56 mg/L (≈ 2.87 µM); in the assay on Treponema hyodysenteriae (setting [5]), 3.13 mg/L (≈ 5.76 µM).
As to Spiramycin [reference compound], the “Minimum Inhibitory Concentration” value in the assay with Treponema hyodysenteriae (strain 78/A), in the assay with Treponema hyodysenteriae (strain CD1 (CD-1)), in the assay with Treponema hyodysenteriae (strain DJ70P1) and in the assay on Treponema hyodysenteriae (strain MK-2) was > 100 µg/mL each time.
Consider `CC(=O)C(=O)NC1C=C(C)C=CC(O)CC=C(C)C=CC(OC=O)CC2OC(=O)C1(C)C(=O)C2C` (stereo not shown) [Lankacidin C 14-formate, lankacidin C 14-formate], for which the MIC in the assay on Treponema hyodysenteriae (setting [2]) was 6.25 mg/L (≈ 12.8 µM); with Treponema hyodysenteriae (setting [3]), 12.5 mg/L (≈ 25.6 µM); in the assay on Treponema hyodysenteriae (setting [4]), 6.25 mg/L (≈ 12.8 µM); with Treponema hyodysenteriae (setting [5]), 6.25 mg/L (≈ 12.8 µM).
`CC(=O)C(=O)NC1C=C(C)C=CC(O)CC=C(C)C=CC(OC(=O)C(C)C)CC2OC(=O)C1(C)C(=O)C2C` (stereo not shown) [Lankacidin C 14-isobutyrate]: the MIC was 12.5 mg/L (≈ 23.6 µM) in the assay with Treponema hyodysenteriae (setting [2]), 25 mg/L (≈ 47.2 µM) in the assay on Treponema hyodysenteriae (setting [3]), 12.5 mg/L (≈ 23.6 µM) in the assay on Treponema hyodysenteriae (setting [4]) and 25 mg/L (≈ 47.2 µM) with Treponema hyodysenteriae (setting [5]).

(Values after patent US4425356A, “Lankacidin derivatives used in swine husbandry” (Takeda Chemical Industries, Ltd., priority 1980, dated 1984).)
